Measurements from patent publication US20060079453A1, “Hla binding peptides and their uses” (priority 2002, published 2006).
Where two headings read alike, the source gives them in different places. No end group written: not given here.

How the values were obtained:
Assay in all cases: biochemical
Type in all cases: binding
HLA-DR DRB1*1302 (DR13) = HLA-DR DRB1*1302 (DR13) (Homo sapiens, UniProt P01903+P01911, A100E/A169T/K41T/L162R/M171V/P40S/Q125H/Q178H/Q39Y/Q99D/R42S/S66N/T262R/V115G/W38E/Y61H)
HLA-DR DRB1*1101 (DR11) = HLA-DR DRB1*1101 (DR11) (Homo sapiens, UniProt P01903+P01911, A100R/A169T/A87E/I96F/K41T/L162R/M171V/P40S/Q125H/Q178H/Q39Y/Q99D/R42S/S66Y/T262R/V115G/W38E)
HLA-DR DRB3*0101 (DR52) = HLA-DR DRB3*0101 (DR52) (Homo sapiens, UniProt P01903+P79483)
HLA-DR DRB1*0301 (DR3) = HLA-DR DRB1*0301 (DR3) (Homo sapiens, UniProt P01903+P01911, A100K/A102G/A103R/A169T/F55Y/I96L/K41T/L162R/M171V/P40S/Q125H/Q178H/Q39Y/R42S/S66N/T106N/T262R/W38E/Y61H)
HLA-DR DRB4*0101 (DR53) = HLA-DR DRB4*0101 (DR53) (Homo sapiens, UniProt P01903+P13762, G164S)
HLA-DR DRB1*0701 (DR7) = HLA-DR DRB1*0701 (DR7) (Homo sapiens, UniProt P01903+P01911, A100R/A102G/A103Q/D57E/D86V/E43K/F76Y/K127E/L162R/M171V/P40G/Q125H/Q99D/R33Q/R42Y/R54Q/S133A/S66F/T210M/V115G/Y107V/Y59L/Y89S)
HLA-DR DRB1*0405 (DR4) = HLA-DR DRB1*0405 (DR4) (Homo sapiens, UniProt P01903+P01911, A100R/A169T/D86S/F76Y/I96L/K127E/L162R/M171V/N62H/P40V/Q125Y/R42H/S133A/S149N/S66Y/V115G/V209L/W38E)
HLA-DR DRB5*0101 (DR51) = HLA-DR DRB5*0101 (DR51) (Homo sapiens, UniProt P01903+Q30154)
HLA-DR DRB1*1501 (DR15) = HLA-DR DRB1*1501 (DR15) (Homo sapiens, UniProt P01903+P01911)
HLA-DR DRB1*0802 (DR8) = HLA-DR DRB1*0802 (DR8) (Homo sapiens, UniProt P01903+P01911, A100R/A103L/A169T/F76Y/H45Y/I96F/K41T/L162R/M171V/P40S/Q125H/Q178H/Q39Y/Q99D/R218S/R42G/S66Y/V115G/W38E)
HLA-DR DRB1*0401 (DR4) = HLA-DR DRB1*0401 (DR4) (Homo sapiens, UniProt P01903+P01911, A100K/A169T/F76Y/I96L/K127E/L162R/M171V/N62H/P40V/Q125Y/R42H/S133A/S149N/S66Y/V115G/V209L/W38E)
HLA-DR DRB1*0101 (DR1) = HLA-DR DRB1*0101 (DR1) (Homo sapiens, UniProt P01903+P01911, A100R/D57E/F55L/F60I/F76Y/I96L/L162R/M171V/P40L/Q125E/R42F/V115G/Y59C)
HLA-DR DRB1*0901 (DR9) = HLA-DR DRB1*0901 (DR9) (Homo sapiens, UniProt P01903+P01911, A100R/A103E/D57H/D86V/F55Y/F60I/F76Y/I96F/K127E/L162R/M171V/P40D/Q125H/Q99R/R33Q/R42F/S133A/S66N/T210M/V115G/W38K/Y107V/Y59G/Y89S); conditions: DRB1 *0901

Sequence of HLA-DR DRB1*1101 (DR11) (P01903 26-254 limits assumed, other chains not shown): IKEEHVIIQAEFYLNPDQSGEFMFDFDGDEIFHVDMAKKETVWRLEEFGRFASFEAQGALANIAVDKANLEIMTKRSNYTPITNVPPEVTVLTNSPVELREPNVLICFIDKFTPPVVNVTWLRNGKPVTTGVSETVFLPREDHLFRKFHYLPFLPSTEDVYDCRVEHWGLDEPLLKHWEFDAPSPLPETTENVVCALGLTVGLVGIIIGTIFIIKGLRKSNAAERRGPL
Sequence of HLA-DR DRB1*1302 (DR13) (P01903 26-254 limits assumed, other chains not shown): as above
Sequence of HLA-DR DRB1*0301 (DR3) (P01903 26-254 limits assumed, other chains not shown): as above

Row | Compound | IC50 (HLA-DR DRB1*1302 (DR13)) [µM] | IC50 (HLA-DR DRB1*1101 (DR11)) [µM] | IC50 (HLA-DR DRB3*0101 (DR52)) [µM] | IC50 (HLA-DR DRB1*0301 (DR3)) [µM] | IC50 (HLA-DR DRB4*0101 (DR53)) [µM] | IC50 (HLA-DR DRB1*0701 (DR7)) [µM] | IC50 (HLA-DR DRB1*0405 (DR4)) [µM] | IC50 (HLA-DR DRB5*0101 (DR51)) [µM] | IC50 (HLA-DR DRB1*1501 (DR15)) [µM] | IC50 (HLA-DR DRB1*1302 (DR13); DRBI *1302) [µM] | IC50 (HLA-DR DRB1*0401 (DR4); DRB1 *0401) [µM] | IC50 (HLA-DR DRB4*0101 (DR53); DRB4 *0101) [µM] | IC50 (HLA-DR DRB1*0101 (DR1); DRB1 *0101) [µM] | IC50 (HLA-DR DRB1*0701 (DR7); DRB1 *0701) [µM] | IC50 (HLA-DR DRB1*0405 (DR4); DRB1 *0405) [µM] | IC50 (HLA-DR DRB5*0101 (DR51); DRB5 *0101) [µM] | IC50 (HLA-DR DRB1*1501 (DR15); DRBI *1501) [µM] | IC50 (HLA-DR DRB1*0401 (DR4)) [µM] | IC50 (HLA-DR DRB1*1101 (DR11); DRB1 *1101) [µM] | IC50 (HLA-DR DRB1*0901 (DR9)) [µM] | also measured
1 | VGGVYLLRRAGPRLGV | > 15.4 | 0.067 | 91.9 | 39.8 | 30.7 | 0.433 | 6.43 | 0.0079 | 0.0062 | – | – | – | – | – | – | – | – | – | – | – | –
2 | RPIVNMDYVVGARTFRREKR | – | – | 3.32 | 0.022 | – | – | – | – | – | 0.073 | 0.0031 | 0.16 | 0.029 | 0.346 | 0.812 | 0.0066 | 0.043 | – | – | – | IC50 (HLA-DR DRB1*0802 (DR8)): 0.748 µM
3 | VGGVYLAPRRGPRLGV | > 15.4 | 0.035 | > 66.5 | 203 | > 42.1 | 0.878 | > 12.2 | 0.076 | 0.055 | – | – | – | – | – | – | – | – | 33.7 | – | – | IC50 (HLA-DR DRB1*0101 (DR1)): 0.746 µM
4 | VGGVYALPRRGPRLGV | > 15.4 | 0.012 | > 66.5 | 349 | – | 0.749 | > 12.2 | 0.034 | 0.451 | – | – | – | – | – | – | – | – | 25.7 | – | – | –
5 | GAPLGGAAAALAHGV | 23.8 | 43.8 | > 51.1 | 82.1 | 0.031 | 31.9 | > 3.37 | 12.9 | 7.68 | – | – | – | – | – | – | – | – | 5.47 | – | – | –
6 | RTITADTFRKLFRVY | – | – | 0.672 | – | – | – | – | – | – | 0.095 | 1.04 | 1.56 | 0.148 | – | 1.96 | 0.093 | 0.035 | – | – | – | IC50 (HLA-DR DRB1*0802 (DR8)): 0.792 µM
7 | HYLKAKEDSHTAWTI | – | – | 35.8 | 70.2 | – | – | – | – | – | 2.26 | 0.553 | 11.8 | 0.232 | 0.801 | 15.1 | 19.6 | 0.529 | – | > 60.6 | 10.1 | –
8 | ELVSEFSRMARDPQ | – | – | 15.8 | – | – | – | – | – | – | > 71.4 | 0.12 | 0.97 | 0.201 | 21.3 | 15.1 | – | 7.89 | – | 4.57 | 91.6 | –
9 | VGGVALLPRRGPRLGV | > 15.4 | – | > 66.5 | 326 | 25.7 | 61.6 | > 12.2 | 20.5 | 0.0085 | – | – | – | – | – | – | – | – | 48.2 | – | – | IC50 (HLA-DR DRB1*0101 (DR1)): 0.849 µM
10 | FTRGKRMSSLHLKRY | – | – | 18.8 | 3.3 | – | – | – | – | – | 10.2 | 1.01 | 2.03 | 0.013 | – | 0.484 | 0.084 | – | – | 0.081 | – | IC50 (HLA-DR DRB1*0802 (DR8)): 0.553 µM
11 | CC[C@H](C)[C@H](NC(=O)CNC(=O)[C@H](CC(C)C)NC(=O)[C@H](CC(C)C)NC(=O)[C@H](CCCNC(=N)N)NC(=O)[C@H](CO)NC(=O)[C@@H](NC(=O)[C@H](Cc1ccc(O)cc1)NC(=O)[C@@H]1CCCN1C(=O)[C@H](CO)NC(=O)CNC(=O)[C@@H](NC(=O)CN)C(C)C)C(C)C)C(=O)N[C@@H](CS)C(=O)N[C@@H](CC(C)C)C(=O)O | – | – | 149 | 168 | – | – | – | – | – | 0.955 | 1.57 | – | 0.019 | 0.19 | 4.16 | – | 0.046 | – | 0.696 | 2.61 | –
12 | APPRLITDSRVLERY | – | – | 0.71 | 0.015 | – | – | – | – | – | 0.092 | 6.68 | 2.26 | 10.1 | 0.629 | 7.77 | 0.698 | – | – | 2.75 | 8.39 | –
